Data reported in PMC6770581, “New Thalidomide-Resembling Dicarboximides Target ABC50 Protein and Show Antileukemic and Immunomodulatory Activities” (Biomolecules, 2019).

Key:
caspase 3 and PARP = assay: Western blot of caspase 3 and PARP cleavage in K562 cells; format: cell-based, human; details: 24 h
Description: 0.15 × 10^6 cells/ml were seeded on a 6-well plate (Nunclon, Thermo Fisher Scientific, Waltham, MA, USA). Following 24 hour preincubation the cells were treated with either the compound or 1% DMSO (control) for 24 or 48 hours. Cells were lysed using RIPA Buffer (Sigma) supplemented with Complete Protease Inhibitor Coctail (Roche, Basel, Switzerland) and PhosSTOP (Roche). Samples containing 20 µg protein were resuspended in 4× Laemmli’s Buffer (Biorad, Hercules, CA, USA), separated on 10% acrylamide gel (TGX Stain-Free Gel Kit, Biorad) and blotted onto nitrocellulose membrane (Panreac Applichem ITW, Darmstadt, Germany). Blots were blocked in 5% non-fat dry milk in TBST (1% (v/v) Tween-20, 140 mM NaCl, 25 mM Trizma, pH = 7.4 adjusted with HCl) for 1 h and incubated overnight with the antibodies against caspase-9 (9502), caspase-8 (9746), caspase-3 (9662), caspase-3 cleaved (9661) and β-actin (3700), all from Cell Signaling Technology, and antibody against poly(ADP-ribose)polymerase (PARP, 551025) from BD Pharmingen. Membranes were incubated with appropriate species-specific secondary antibodies conjugated with HRP (Cell Signaling Technology, Danvers, MA, USA). Blots were developed using ECL substrate (Biorad, Hercules, CA, USA). The experiment was performed in at least three independent biological replicates.

[1] = system: HeLa cells with knocked-down ABC50 (HeLa kdABC); assay: MTT viability of HeLa cells with siRNA knockdown of ABC50; format: cell-based, human; details: 48 h
Description: Human umbilical vein endothelial cells (purchased from Life Technologies, Carlsbad, CA, USA) were cultured according to the manufacturer’s instructions in Medium 200 supplemented with Low Serum Growth Supplement. 1 × 10^4 cells were seeded on each well on a 96-well plate (Nunc, Roskilde, Denmark). The HeLa (human cervix carcinoma, cat. #93021013), CFPAC (human pancreatic adenocarcinoma, cat. #91112501), K562 (chronic myelogenous leukemia, cat. #89121407), HL-60 (acute myelogenous leukemia, cat. #98070106), and MOLT-4 (Human acute T lymphoblastic leukemia, cat. #85011413) cells were purchased from European Collection of Authenticated Cell Cultures (ECACC). They were cultured in an RPMI 1640 medium supplemented with antibiotics (streptomycin, penicillin) and 10% fetal calf serum (20% for HL60), in a 5% CO2-95% air atmosphere. 7 × 10^3 cells were seeded on each well on a 96-well plate (Nunc). 24 hours later the cells were exposed to the test compounds. […] The cytotoxicity of all compounds was determined by the MTT (3-(4,5-dimethylthiazol-2-yl)-2,5-diphenyltetrazolium bromide) assay (Sigma, St. Louis, MO, USA). […] MTT-formazan crystals were dissolved in 20% SDS and 50% DMF at pH 4.7 and VIS light absorption was measured at 570 and 650 nm on a microplate reader FLUOstar Omega (BMG Labtech, Offenburg, Germany). […]
HeLa cells were transfected with a siRNA with the aid of Lipofectamine 3000 (Invitrogen, Carlsbas, CA, USA) according to manufacturer’s instructions. […] Unless otherwise stated, cells transfected with a given siRNA were analyzed 48 h post-transfection. siRNAs for ABC50 (NM_001090) were designed with the aid of the siDESIGN Center (www.dharmacon.com), synthesized in-house (the Department of Bioorganic Chemistry, Centre of Molecular and Macromolecular Studies, Polish Academy of Sciences (CMMS PAS) and purified by high-performance liquid chromatography (HPLC). The silencing efficiency of siRNAs was determined by western blotting of ABC50 protein in transfected HeLa cells. The following siRNA duplexes (S—sense strand, AS—antisense strand) were used: […]

Row | SMILES | caspase 3 and PARP cleavage (Western blot) (caspase 3 and PARP) | viability of HeLa cells with normal levels of ABC50 (siCTL) ([1]; control siRNA, up to 2.5 µM) | reduction of viability of HeLa kdABC ([1]; si166, 5 µM) | viability of HeLa cells with knocked-down ABC50 (HeLa kdABC) ([1]; si166, up to 2.5 µM)
1 | CCC12C(=O)C(CC)(C(c3ccccc3)=C1c1ccccc1)C1C(=O)N(CC(O)CNC(C)C)C(=O)C12 (stereo not shown) [Compound 5] | presence of cleavage fragments of PARP (85 kDa) and caspase 3 (17 kDa) | – | – | –
2 | CN(C)CCN1C(=O)C2C(C1=O)C1(c3ccccc3)CC2(c2ccccc2)C(c2ccccc2)=C1c1ccccc1 (stereo not shown) [Compound 6] | – | significantly lower | about 20% | not affected
